Measured values as given in PubChem BioAssay AID328 (DTP/NCI, 2004).
Where “and” joins values, the source holds several entries; their conditions need not be identical. Identical values can stand only once. Toxic doses and inconclusive results are not listed.

System: BDF1 mice, P388 leukemia ip, median survival T/C
Assay: NCI In Vivo Anticancer Drug Screen. Data for tumor model P388 Leukemia (intraperitoneal) in B6D2F1 (BDF1) mice
Settings: endpoint: median survival time, higher = longer survival
In short: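 Antitumour effect was judged in vivo: survival in drug-treated mice, normalised to that of vehicle-dosed controls, gives the reported T/C.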

[1] = dose: 100.0 mg/kg/injection, schedule: Q01DX009 (ip), vehicle: Klucel (hydroxypropylcellulose) (HPC)
[2] = dose: 200.0 mg/kg/injection, schedule: Q01DX009 (ip), vehicle: Klucel (hydroxypropylcellulose) (HPC)
[3] = dose: 400.0 mg/kg/injection, schedule: Q01DX009 (ip), vehicle: Klucel (hydroxypropylcellulose) (HPC)
[4] = dose: 50.0 mg/kg/injection, schedule: Q04DX003 (ip), vehicle: saline
[5] = dose: 100.0 mg/kg/injection, schedule: Q04DX003 (ip), vehicle: saline
[6] = dose: 200.0 mg/kg/injection, schedule: Q04DX003 (ip), vehicle: saline
[7] = dose: 100.0 mg/kg/injection, schedule: Q04DX003 (ip), vehicle: Klucel (hydroxypropylcellulose) (HPC)
[8] = dose: 200.0 mg/kg/injection, schedule: Q04DX003 (ip), vehicle: Klucel (hydroxypropylcellulose) (HPC)
[9] = dose: 400.0 mg/kg/injection, schedule: Q04DX003 (ip), vehicle: Klucel (hydroxypropylcellulose) (HPC)
[10] = dose: 100.0 mg/kg/injection, schedule: Q01DX009 (ip), vehicle: saline with Tween-80
[11] = dose: 100.0 mg/kg/injection, schedule: Q04DX003 (ip), vehicle: saline with Tween-80
[12] = dose: 200.0 mg/kg/injection, schedule: Q01DX009 (ip), vehicle: saline with Tween-80
[13] = dose: 200.0 mg/kg/injection, schedule: Q04DX003 (ip), vehicle: saline with Tween-80
[14] = dose: 400.0 mg/kg/injection, schedule: Q01DX009 (ip), vehicle: saline with Tween-80
[15] = dose: 400.0 mg/kg/injection, schedule: Q04DX003 (ip), vehicle: saline with Tween-80
[16] = dose: 50.0 mg/kg/injection, schedule: Q01DX009 (ip), vehicle: saline with Tween-80
[17] = dose: 100.0 mg/kg/injection, schedule: Q04DX002 (ip), vehicle: saline with Tween-80
[18] = dose: 200.0 mg/kg/injection, schedule: Q04DX002 (ip), vehicle: saline with Tween-80
[19] = dose: 25.0 mg/kg/injection, schedule: Q01DX009 (ip), vehicle: water
[20] = dose: 50.0 mg/kg/injection, schedule: Q01DX009 (ip), vehicle: water
[21] = dose: 100.0 mg/kg/injection, schedule: Q04DX003 (ip), vehicle: water
[22] = dose: 100.0 mg/kg/injection, schedule: Q01DX009 (ip), vehicle: saline

Structure (SMILES): OC1(O)COC(c2ccccc2)OC1
- T/C (dose: 100.0 mg/kg/injection, schedule: Q01DX001 (ip), vehicle: Klucel (hydroxypropylcellulose) (HPC)): 104 % of control
- T/C [1]: 120 % of control
- T/C (dose: 200.0 mg/kg/injection, schedule: Q01DX001 (ip), vehicle: Klucel (hydroxypropylcellulose) (HPC)): 104 % of control
- T/C [2]: 110 % of control
- T/C (dose: 400.0 mg/kg/injection, schedule: Q01DX001 (ip), vehicle: Klucel (hydroxypropylcellulose) (HPC)): 100 % of control
- T/C [3]: 115 % of control

Structure (SMILES): Cc1ncc2c[n+]([O-])ccn12
- T/C [4]: 100 % of control
- T/C [5]: 100 % of control
- T/C [6]: 90 % of control

Structure (SMILES): O=C(Nc1ccc(Cl)cc1)O/N=C/c1ccccn1
- T/C (dose: 100.0 mg/kg/injection, schedule: Q01DX001 (ip), vehicle: saline with Tween-80): 95 % of control
- T/C (dose: 200.0 mg/kg/injection, schedule: Q01DX001 (ip), vehicle: saline with Tween-80): 104 % of control
- T/C (dose: 400.0 mg/kg/injection, schedule: Q01DX001 (ip), vehicle: saline with Tween-80): 90 % of control

Structure (SMILES): CC1NC(C(=O)O)Cc2cc(O)c(O)cc21 (stereo not drawn)
- T/C (dose: 12.5 mg/kg/injection, schedule: Q01DX009 (ip), vehicle: Klucel (hydroxypropylcellulose) (HPC)): 109 % of control
- T/C (dose: 25.0 mg/kg/injection, schedule: Q01DX009 (ip), vehicle: Klucel (hydroxypropylcellulose) (HPC)): 109 % of control
- T/C (dose: 50.0 mg/kg/injection, schedule: Q01DX009 (ip), vehicle: Klucel (hydroxypropylcellulose) (HPC)): 92 % of control and 99 % of control
- T/C [1]: 101 % of control

Structure (SMILES): CCCC[N+](CCCC)(CCCC)CCCC.Cc1ccc([SH2+])c([SH2+])c1.Cc1ccc([SH2+])c([SH2+])c1.[Ni+3]
- T/C (dose: 100.0 mg/kg/injection, schedule: Q01DX001 (ip), vehicle: other): 112 % of control
- T/C [7]: 109 % of control
- T/C [5]: 115 % of control
- T/C (dose: 200.0 mg/kg/injection, schedule: Q01DX001 (ip), vehicle: other): 112 % of control
- T/C [8]: 118 % of control
- T/C [6]: 115 % of control
- T/C (dose: 265.0 mg/kg/injection, schedule: Q04DX003 (ip), vehicle: Klucel (hydroxypropylcellulose) (HPC)): 116 % of control
- T/C (dose: 400.0 mg/kg/injection, schedule: Q01DX001 (ip), vehicle: other): 112 % of control
- T/C [9]: 112 % of control

Structure (SMILES): O=C(Cn1ccc(=O)[nH]c1=O)c1cccs1
- T/C [10]: 90 % of control
- T/C [11]: 100 % of control
- T/C [12]: 86 % of control
- T/C [13]: 95 % of control
- T/C [14]: 100 % of control
- T/C [15]: 95 % of control

Structure (SMILES): CC1(CNC(=O)C(=O)NCC2(C)CO2)CO1 (stereo not drawn)
- T/C (dose: 50.0 mg/kg/injection, schedule: Q04DX003 (ip), vehicle: saline with Tween-80): 158 % of control
- T/C [10]: 154 % of control
- T/C [11]: 191 % of control
- T/C (dose: 132.0 mg/kg/injection, schedule: Q04DX003 (ip), vehicle: saline with Tween-80): 208 % of control
- T/C [13]: 183 % of control
- T/C (dose: 300.0 mg/kg/injection, schedule: Q04DX003 (ip), vehicle: saline with Tween-80): 233 % of control

Structure (SMILES): CC(NSc1ccccc1[N+](=O)[O-])C(=O)O (stereo not drawn)
- T/C [16]: 98 % of control
- T/C [10]: 113 % of control

Structure (SMILES): Cc1cc(-c2ccccc2)c2ccccc2c1N(CC(=O)O)S(=O)(=O)c1ccccc1
- T/C (dose: 44.0 mg/kg/injection, schedule: Q01DX009 (ip), vehicle: saline with Tween-80): 95 % of control and 105 % of control
- T/C (dose: 66.0 mg/kg/injection, schedule: Q01DX009 (ip), vehicle: saline with Tween-80): 110 % of control
- T/C [10]: 95 % of control and 120 % of control
- T/C (dose: 150.0 mg/kg/injection, schedule: Q01DX009 (ip), vehicle: saline with Tween-80): 121 % of control

Structure (SMILES): COC1/C=C\OC2(C)Oc3c(C)c(O)c4c(c3C2=O)C(=O)C=C(NC(=O)C(C)=C/C=C\C(C)C(O)C(C)C2OC(C)(C)OC(C1C)C2C)C4=O (stereo not drawn)
- T/C [16]: 103 % of control
- T/C [10]: 100 % of control
- T/C [12]: 93 % of control

Structure (SMILES): CCn1c2ccc(N)cc2c2c3[nH]c(=O)c4cccn4c3ccc21
- T/C [17]: 100 % of control
- T/C [18]: 92 % of control

Structure (SMILES): CSCC(C(N)=O)c1cc(Cl)ccc1Cl (stereo not drawn)
- T/C [19]: 97 % of control
- T/C [20]: 103 % of control
- T/C [10]: 100 % of control
- T/C (dose: 100.0 mg/kg/injection, schedule: Q01DX009 (ip), vehicle: water): 101 % of control
- T/C [21]: 95 % of control
- T/C (dose: 200.0 mg/kg/injection, schedule: Q04DX003 (ip), vehicle: water): 100 % of control
- T/C (dose: 400.0 mg/kg/injection, schedule: Q04DX003 (ip), vehicle: water): 100 % of control

Structure (SMILES): CCN1C=NNc2ccc(Cl)cc2C1=O
- T/C [11]: 97 % of control
- T/C [13]: 97 % of control
- T/C [15]: 100 % of control

Structure (SMILES): O=[N+]([O-])C(c1ccccc1)C(c1ccccc1)C(c1ccccc1)[N+](=O)[O-] (stereo not drawn)
- T/C (dose: 50.0 mg/kg/injection, schedule: Q01DX005 (ip), vehicle: saline with Tween-80): 103 % of control
- T/C (dose: 100.0 mg/kg/injection, schedule: Q01DX005 (ip), vehicle: saline with Tween-80): 87 % of control
- T/C (dose: 200.0 mg/kg/injection, schedule: Q01DX005 (ip), vehicle: saline with Tween-80): 91 % of control

Structure (SMILES): O=C(C/C(=N\C(=S)Nc1cc(C(F)(F)F)ccc1Cl)NO)N1CCCC1
- T/C [16]: 110 % of control

Structure (SMILES): O=C(c1ccccc1)N(Nc1ccccc1)c1ccccc1
- T/C [1]: 95 % of control
- T/C [7]: 100 % of control
- T/C [2]: 109 % of control
- T/C [8]: 100 % of control
- T/C [3]: 95 % of control
- T/C [9]: 100 % of control

Structure (SMILES): Cc1ccc2c(c1)CCCN2C=O
- T/C [16]: 104 % of control
- T/C [10]: 109 % of control
- T/C [12]: 123 % of control

Structure (SMILES): CCNCc1ccc(OC)cc1
- T/C (dose: 25.0 mg/kg/injection, schedule: Q04DX003 (ip), vehicle: saline): 100 % of control
- T/C [4]: 100 % of control
- T/C [5]: 100 % of control

Structure (SMILES): CCCCCCCCC(O)CCCCC (stereo not drawn)
- T/C [7]: 108 % of control
- T/C [8]: 87 % of control
- T/C [9]: 95 % of control

Structure (SMILES): O=NO.O=N[O-].O=N[O-].[Co+3].[NH-]CC[N-]CCO.[NH-]CC[N-]CCO
- T/C [19]: 104 % of control
- T/C (dose: 25.0 mg/kg/injection, schedule: Q04DX003 (ip), vehicle: water): 100 % of control
- T/C [20]: 98 % of control
- T/C (dose: 50.0 mg/kg/injection, schedule: Q04DX003 (ip), vehicle: water): 109 % of control
- T/C [21]: 104 % of control

Structure (SMILES): O=C(O)c1ccccc1Oc1ccccc1C(=O)O
- T/C [22]: 100 % of control
- T/C (dose: 200.0 mg/kg/injection, schedule: Q01DX009 (ip), vehicle: saline): 90 % of control
- T/C (dose: 400.0 mg/kg/injection, schedule: Q01DX009 (ip), vehicle: saline): 104 % of control

Structure (SMILES): NNC(=O)c1ccccn1
- T/C (dose: 25.0 mg/kg/injection, schedule: Q01DX009 (ip), vehicle: saline): 92 % of control
- T/C (dose: 50.0 mg/kg/injection, schedule: Q01DX009 (ip), vehicle: saline): 100 % of control
- T/C [22]: 100 % of control
- T/C [5]: 88 % of control

Structure (SMILES): O=C(Nc1ccccc1O)c1ccccc1
- T/C (dose: 100.0 mg/kg/injection, schedule: Q04DX003 (ip), vehicle: saline sonified): 90 % of control
- T/C (dose: 200.0 mg/kg/injection, schedule: Q04DX003 (ip), vehicle: saline sonified): 100 % of control
- T/C (dose: 400.0 mg/kg/injection, schedule: Q04DX003 (ip), vehicle: saline sonified): 90 % of control

Structure (SMILES): NC(CSC(c1ccccc1)(c1ccccc1)c1ccccc1)C(=O)NCC(=O)O (stereo not drawn)
- T/C (dose: 177.0 mg/kg/injection, schedule: Q01DX009 (ip), vehicle: saline with Tween-80): 111 % of control
- T/C [14]: 107 % of control

Structure (SMILES): CC(=O)NC(Cc1ccc(F)cc1)C(=O)O (stereo not drawn)
- T/C [12]: 121 % of control

Structure (SMILES): CC(C)(C)[Si](C)(C)OC(=O)NCCCl
- T/C [17]: 100 % of control
- T/C [18]: 109 % of control
- T/C (dose: 400.0 mg/kg/injection, schedule: Q04DX002 (ip), vehicle: saline with Tween-80): 118 % of control
